Legend:
[1] = test system: caspases 3 and 7 in K562 cells; assay: Caspase-Glo 3/7 assay; type: cell-based, human; conditions: IC50 concentration; for Effect on activity of caspases 3 and 7: 4 h incubation
Source text: ROS may play a different function in different stages of cancer. ROS might enhance cell growth and proliferation through the induction of various cell signaling pathways involving nuclear factor-kappa B (NF-κB) and STAT3, hypoxia-inducible factor 1α (HIF1α), kinases, growth factors, cytokines and many other proteins. On the other hand, the accumulation of ROS can induce cell damage and promote apoptosis. It has also been confirmed that elevated ROS concentration may cause mitochondrial membrane depolarization and facilitate increased cellular pro-apoptotic molecules releasing. […] As has been previously reported, lead compound 1,1′-[3-(bromomethyl)-5,6-dimethoxy-1-benzofuran-2,7-diyl] induces apoptosis in human leukemia cells. […] We used the Annexin V-FITC test, which allows us to detect the early structural changes in cellular membrane which occur during apoptosis. […] In the control sample almost 94% of cells were neither apoptotic nor necrotic. […] As has been previously written, the MTT test assesses the toxicity of tested compounds based on the activity of mitochondrial enzymes. […] Our results are in agreement with studies conducted by Liu et al. and Su et al. They report that the benzofuran derivatives ACDB and BL-038 induce apoptosis of human chandrosarcoma cells through ROS generation, mitochondria and endoplasmic reticulum dysfunction. BL-038 increases ROS production and dysregulates mitochondria membrane potential. This causes cytochrome C to be released from mitochondria and caspase activation. Similar effects have been observed for 2-amino-3-(2-chlorophenyl)-6-(4-dimethylaminophenyl) benzofuran-4-yl acetate (ACDB). It is well documented that disruption of the mitochondrial membrane as a result of, for example, the action of free radicals causes the release of cytochrome C. In the next step, cytochrome C binds to Apaf-1 (apoptotic protease activating factor 1) and it becomes the main component of apoptosome. The binding of cytochrome C with Apaf-1 is a critical step in apoptosome formation because it is responsible for the induction of intrinsic cell death pathway triggered by caspase activation. The observed increased concentration of hydrogen peroxide in cells exposed to both tested compounds might be a key factor for the molecular mechanism of apoptosis. Hydrogen peroxide can affect the redox state of cytochrome C. In addition to the effect of hydrogen peroxide on the iron atom in the cytochrome, it can also affect the activation of caspases. In order to estimate the effect of K562 exposure on the tested compounds as well as to confirm apoptotic properties of new benzofurans, we analyzed the effect of the compounds caspases 3 and 7 activities. […] We observed significant changes of activity after 48 h exposure. […] The caspase cascade responsible for executing cell death following cytochrome C release is well documented. Available research indicates, first of all, the key role of caspases 3 and 7 as mediators in the apoptosis through the intrinsic (mitochondrial) cell death pathway. […] They have shown that caspase 9 is responsible for mitochondrial morphological changes and ROS production by cleaving and activating Bid into tBid. Following caspase 9 activation, caspase 3 […] ROS generation and is essential for the efficient execution of apoptosis, whereas effector caspase 7 is needed for apoptotic cell detachment. […]
The induction of cell apoptosis was also analyzed by luminescent assay with the Caspases-Glo3/7 assay system (Promega). […]

[2] = test system: standard bacteria strains; assay: Antibacterial screening against standard strains (overall statements); type: cell-based; conditions: concentrations 16 to 512 µg/mL
Protocol: All of the obtained derivatives (1–9) were tested in vitro against a number of bacteria, including representative standard Gram-positive and Gram-negative rods. Compounds were screened for their minimal inhibitory concentrations (MICs).
The antimicrobial studies for all of the obtained compounds were conducted using reference strains of bacteria derived from international microbe collections—the American Type Culture Collection (ATCC) and the National Collection of Type Culture (NCTC). Among the reference strains there were two Gram-negative rods (P. aeruginosa ATCC 15442 and E. coli ATCC 25922) and six Gram-positive isolates (Staphylococcus aureus: NCTC 4163, ATCC 25923, ATCC 6538, ATCC 29213, S. epidermidis ATCC 12228, ATCC 35984). These strains are widely used to determine the activity of antimicrobials and check the drug susceptibility of bacteria, and their use enables comparison of assay results obtained in independent laboratories all over the world.
The antimicrobial activity of compounds was expressed by minimum inhibitory concentration values (MICs), according to CLCI reference procedures with some modifications. MIC was tested by the two-fold serial microdilution method (in 96-well microtiter plates) on MH II liquid medium. The final inoculum of all of the studied bacteria was 10^6 CFU/mL (colony forming unit per mL). […]

Row | SMILES | Effect on activity of caspases 3 and 7 [1] | Increase of activity of caspases 3 and 7 ([1]; 12 h exposure) [%] | Increase of activity of caspases 3 and 7 ([1]; 48 h exposure) [%] | Antimicrobial activity against the studied strains [2]
1 | CCOc1cccc2oc(C(C)=O)c(CBr)c12 [Compound 8, 1-[3-(Bromomethyl)-4-Ethoxy-1-Benzofuran-2-yl]Ethanone] | did not affect the activity of caspases 3 and 7 | 27 | 13 | –
2 | COc1cc(OC)c2c(CBr)c(C(C)=O)oc2c1 [Compound 6, 1-[3-(Bromomethyl)-4,6-Dimethoxy-1-Benzofuran-2-yl]Ethanone] | did not affect the activity of caspases 3 and 7 | 26 | – | did not show antimicrobial properties against the studied strains

Source: publication PMC10888192, “New Derivatives of 1-(3-Methyl-1-Benzofuran-2-yl)Ethan-1-one: Synthesis and Preliminary Studies of Biological Activity” (International Journal of Molecular Sciences, 2024)
